Results from patent US9234006B2, “Compounds” (Novacta Biosystems Limited, priority 2011, dated 2016).
Counter-ions that a name gives are not always drawn. Where a SMILES comes first, the peptide text is derived from it. Bridges are numbered along the chain shown (N, C = ends). [ ]: non-standard residue; d: D form. The star is where a group is joined. ξ: configuration not given here. Thr(3ξ) = CC(O)[C@H](N)C(=O)O; Dab = NCC[C@H](N)C(=O)O; X4 = CN(C)CCCC(=O)*; X6 = O=C(CCCCCCCO)*; Ahx = NCCCCCC(=O)O; X3 = O=C(C1CCNC1)*

Tests used:
Test in all cases: MIC susceptibility testing, broth microdilution in CaMHB
P. aeruginosa ATCC27853 = assay type: cell-based, Pseudomonas aeruginosa
Description: (§1) To evaluate the potency and spectrum of the compounds, susceptibility testing was performed against four strains of each of the four Gram negative pathogens, Escherichia coli, Pseudomonas aeruginosa, Klebsiella pneumoniae and Acinetobacter baumannii.
(§2) The day before testing, 3 to 4 colonies were picked from fresh Mueller-Hinton Agar (MHA) plate and transferred into 10 mL of Cation adjusted MHB (CaMHB). Cultures were incubated at 37° C. 250 rpm for 18-20 hours before being diluted 100-fold in fresh CaMHB. The subcultures were grown further until the OD600 reached 0.2-0.3 corresponding to […]. The actively growing cultures were diluted 100-fold in fresh medium and used for the inoculum.
(§3) The assays were performed in duplicate.
(§4) Data was obtained under similar conditions to Table 4 except that different batches of cation-adjusted Muller-Hinton broth were used. The MIC values for these compounds are compared with those values obtained for Polymyxin B, Colistin Sulphate, CB-182,804 and NAB739 (as the TFA salt). CB-182,804 is a polymyxin decapeptide derivative with an aryl urea substituent at the N-terminus, which has been claimed to have lower toxicity than Polymyxin B (compound 5 in WO 2010/075416. See page 37). NAB739 has been described previously by Vaara et al.

[1] = test system: P. aeruginosa ATCCCRM-9027; assay type: cell-based, Pseudomonas aeruginosa
Description: as §1, §2, §3, §4

E. coli NCTC9001 = assay type: cell-based, Escherichia coli; details: Table 4
Description: as §1, §2, §3, §4

E. coli ATCC25922 = assay type: cell-based, Escherichia coli
Description: as §1, §2, §3, §4

E. coli NCTC12900 = assay type: cell-based, Escherichia coli
Description: as §1, §2, §3, §4

A. baumannii NCTC7844 = assay type: cell-based, Acinetobacter baumannii
Description: as §1, §2, §3, §4

A. baumannii NCTC13423 = assay type: cell-based, Acinetobacter baumannii
Description: as §1, §2, §3, §4

A. baumannii ATCCBAA-747 = assay type: cell-based, Acinetobacter baumannii
Description: as §1, §2, §3, §4

[2] = test system: K. pneumoniae ATCCBAA-1706; assay type: cell-based, Klebsiella pneumoniae
Description: as §1, §2, §3, §4

K. pneumoniae ATCC 4352 = assay type: cell-based, Klebsiella pneumoniae
Description: as §1, §2, §3, §4

K. pneumoniae NCTC7427 = assay type: cell-based, Klebsiella pneumoniae
Description: as §1, §2, §3, §4

K. pneumoniae NCTC8172 = assay type: cell-based, Klebsiella pneumoniae
Description: as §1, §2, §3, §4

P. aeruginosa ATCC10145 = assay type: cell-based, Pseudomonas aeruginosa
Description: as §1, §2, §3, §4

E. coli ATCC700928 = assay type: cell-based, Escherichia coli
Description: as §1, §2, §3, §4

P. aeruginosa ATCC 9721 = assay type: cell-based, Pseudomonas aeruginosa; details: P. aeruginosa ATCC 9721; Table 4
Description: as §1, §2, §3, §4

A. baumannii ATCC19606 = assay type: cell-based, Acinetobacter baumannii
Description: as §1, §2, §3, §4

[3] = P. aeruginosa ATCCCRM-9027, Table 4
[4] = K. pneumoniae ATCC 4352, Table 4
[5] = Table 4A, different batches of cation-adjusted Muller-Hinton broth

Structure (SMILES)	MIC (P. aeruginosa ATCC27853; Table 4) [micrograms/mL]	MIC [1, 3] [micrograms/mL]	MIC (E. coli NCTC9001) [micrograms/mL]	MIC (E. coli ATCC25922; Table 4) [micrograms/mL]	MIC (E. coli NCTC12900; Table 4) [micrograms/mL]	MIC (A. baumannii NCTC7844; Table 4) [micrograms/mL]	MIC (A. baumannii NCTC13423; Table 4) [micrograms/mL]	MIC (A. baumannii ATCCBAA-747; Table 4) [micrograms/mL]	MIC ([2]; Table 4) [micrograms/mL]	MIC (K. pneumoniae ATCC 4352; [4]) [micrograms/mL]	MIC (K. pneumoniae NCTC7427; Table 4) [micrograms/mL]	MIC (K. pneumoniae NCTC8172; Table 4) [micrograms/mL]	MIC (P. aeruginosa ATCC10145; Table 4) [micrograms/mL]	MIC (E. coli ATCC700928; Table 4) [micrograms/mL]	other results
CC(C)C[C@@H]1NC(=O)[C@@H](Cc2ccccc2)NC(=O)[C@H](CCN)NC(=O)[C@@H](NC(=O)[C@H](CCN)NC(=O)[C@@H](NC(=O)CCCCCN)C(C)O)CCNC(=O)[C@H](C(C)O)NC(=O)[C@H](CCN)NC(=O)[C@H](CCN)NC1=O (stereo partly shown) [Example 7, 6-Aminohexanoyl Polymyxin B Nonapeptide, Sulphate Salt] (H-[Ahx][Thr(3ξ)][Dab][Dab][Dab][dF]L[Dab][Dab][Thr(3ξ)]; lactam 4-C)	0.5	0.25	8	2	4	16	0.5	8	0.06	0.5	0.25	>32	–	–	–
CC(C)C[C@@H]1NC(=O)[C@@H](Cc2ccccc2)NC(=O)[C@H](CCN)NC(=O)[C@@H](NC(=O)[C@H](CCN)NC(=O)[C@@H](NC(=O)CCCCCCCO)C(C)O)CCNC(=O)[C@H](C(C)O)NC(=O)[C@H](CCN)NC(=O)[C@H](CCN)NC1=O (stereo partly shown) [Example 8, 8-Hydroxyoctanoyl Polymyxin B Nonapeptide, Sulphate Salt] (X6-[Thr(3ξ)][Dab][Dab][Dab][dF]L[Dab][Dab][Thr(3ξ)]; lactam 3-C)	0.5	0.25	2	2	–	16	–	–	–	–	1	–	2	0.5	–
CC(C)C[C@@H]1NC(=O)[C@@H](Cc2ccccc2)NC(=O)[C@H](CCN)NC(=O)[C@@H](NC(=O)[C@H](CCN)NC(=O)[C@@H](NC(=O)C2CCNC2)C(C)O)CCNC(=O)[C@H](C(C)O)NC(=O)[C@H](CCN)NC(=O)[C@H](CCN)NC1=O (stereo partly drawn) [Example 13, [3-(R,S)-Pyrrolidine-3-carbonyl] Polymyxin B Nonapeptide, Sulphate Salt] (X3-[Thr(3ξ)][Dab][Dab][Dab][dF]L[Dab][Dab][Thr(3ξ)]; lactam 3-C)	0.25	2	–	0.5	2	4	2	4	1	0.5	0.25	4	0.5	0.25	MIC (P. aeruginosa ATCC 9721): 0.125 micrograms/mL; MIC (A. baumannii ATCC19606; Table 4): 0.5 micrograms/mL
CC(C)C[C@@H]1NC(=O)[C@@H](Cc2ccccc2)NC(=O)[C@H](CCN)NC(=O)[C@@H](NC(=O)[C@H](CCN)NC(=O)[C@@H](NC(=O)CCCN(C)C)C(C)O)CCNC(=O)[C@H](C(C)O)NC(=O)[C@H](CCN)NC(=O)[C@H](CCN)NC1=O (stereo partly shown) [Example 18, 4-(N,N-dimethylamino)-butanoyl polymyxin B nonapeptide] (X4-[Thr(3ξ)][Dab][Dab][Dab][dF]L[Dab][Dab][Thr(3ξ)]; lactam 3-C)	–	–	–	–	–	–	–	–	–	–	–	–	–	–	MIC (P. aeruginosa ATCC10145; [5]): 0.25 micrograms/mL; MIC (P. aeruginosa ATCC27853; [5]): 0.125 micrograms/mL; MIC ([1]; P. aeruginosa AATCCRM 9027, Table 4A, different batches of cation-adjusted Muller-Hinton broth): 2 micrograms/mL; MIC (E. coli ATCC25922; [5]): 0.5 micrograms/mL; MIC (E. coli NCTC12900; [5]): 4 micrograms/mL; MIC (E. coli ATCC700928; [5]): 0.25 micrograms/mL; MIC (A. baumannii NCTC7844; [5]): 8 micrograms/mL; MIC (A. baumannii NCTC13423; [5]): 4 micrograms/mL; MIC (A. baumannii ATCC19606; [5]): 1 micrograms/mL; MIC (A. baumannii ATCCBAA-747; [5]): 16 micrograms/mL; MIC [2, 5]: 8 micrograms/mL; MIC (K. pneumoniae ATCC 4352; K. pneumoniae ATCC4352, Table 4A, different batches of cation-adjusted Muller-Hinton broth): 0.5 micrograms/mL; MIC (K. pneumoniae NCTC7427; [5]): 0.125 micrograms/mL; MIC (K. pneumoniae NCTC8172; [5]): >32 micrograms/mL
